One assay has as its target T1, rat Nectin-4 (Rattus norvegicus, UniProt D3ZET1).
T1 sequence (D3ZET1 31-509): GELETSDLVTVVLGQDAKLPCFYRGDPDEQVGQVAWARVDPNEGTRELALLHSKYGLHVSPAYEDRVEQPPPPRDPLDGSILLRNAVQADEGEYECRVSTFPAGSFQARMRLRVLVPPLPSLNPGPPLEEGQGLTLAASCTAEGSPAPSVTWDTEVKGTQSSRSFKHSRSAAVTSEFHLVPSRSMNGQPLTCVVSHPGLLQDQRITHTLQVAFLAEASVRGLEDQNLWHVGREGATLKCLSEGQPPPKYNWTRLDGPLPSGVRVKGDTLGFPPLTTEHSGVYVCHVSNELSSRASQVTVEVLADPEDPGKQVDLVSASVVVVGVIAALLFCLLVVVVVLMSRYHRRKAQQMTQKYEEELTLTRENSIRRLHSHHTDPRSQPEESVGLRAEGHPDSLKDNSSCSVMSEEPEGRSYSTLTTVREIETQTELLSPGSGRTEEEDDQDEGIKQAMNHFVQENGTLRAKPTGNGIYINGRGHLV
Nature of the assay: SPR direct binding to biotinylated Nectin-4 extracellular domain, rat. An excerpt: (§1) The binding of BCY11863 to its primary target Nectin-4 and CD137 was characterized using surface plasmon resonance (SPR).

For another assay, the target named is T2, human Nectin-4 (Homo sapiens, UniProt Q96NY8).
T2 sequence (Q96NY8 32-349 limits assumed): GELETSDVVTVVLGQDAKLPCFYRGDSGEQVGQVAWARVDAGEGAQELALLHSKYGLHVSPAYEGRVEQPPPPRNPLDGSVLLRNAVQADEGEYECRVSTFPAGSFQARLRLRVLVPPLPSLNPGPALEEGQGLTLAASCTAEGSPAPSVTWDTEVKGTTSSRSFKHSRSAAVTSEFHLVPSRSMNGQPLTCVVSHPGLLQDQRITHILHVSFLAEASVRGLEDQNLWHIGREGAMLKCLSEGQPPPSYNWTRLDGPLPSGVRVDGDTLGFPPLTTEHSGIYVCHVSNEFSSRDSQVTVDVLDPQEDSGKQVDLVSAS
Nature of the assay: SPR direct binding to biotinylated Nectin-4 extracellular domain, human.
Source text: as §1

The subject of the next assay is human PBMCs. The assay is described as follows: Human PBMC-tumor cell co-culture (cytokine stimulation) assay with Nectin-4-expressing tumor cells. Type of assay: cell-based. The procedure: Tumor cell lines were cultured according to suppliers recommended protocol. Frozen PBMCs from healthy human donors were thawed and washed one time in room temperature PBS, and then resuspended in R10 medium. 100 μl of PBMCs (1,000,000 PBMCs/ml) and 100 μl of tumor cells (100,000 tumor cells/ml) (Effector:Target cell ratio (E:T) 10:1) were plated in each well of a 96 well flat bottom plate for the co-culture assay. 100 ng/ml of soluble anti-CD3 mAb (clone OKT3) was added to the culture on day 0 to stimulate human PBMCs. Test, control compounds, or vehicle controls were diluted in R10 media and 50 μL was added to respective wells to bring the final volume per well to 250 μL. Plates were covered with a breathable film and incubated in a humidified chamber at 37° C. with 5% CO2 for […]. Supernatants were collected 48 hours after stimulation, and human IL-2 and IFN-γ were detected by Luminex. Briefly, the standards and samples were added to black 96 well plate. Microparticle cocktail (provided in Luminex kit, R&D Systems) was added and shaken for 2 hours at room temperature. The plate was washed 3 times using magnetic holder. Biotin cocktail was then added to the plate and shaken for 1 hour at RT. The plate was washed 3 times using magnetic holder. Streptavidin cocktail was added to the plate and shaken for 30 minutes at RT. The plates were washed 3 times using magnetic holder, resuspended in 100 μL of wash buffer, shaken for 2 minutes at RT, and read using the Luminex 2000. Raw data were analyzed using built-in Luminex software to generate standard curves and interpolate protein concentrations, all other data analyses and graphing were performed using Excel and Prism software. […]

The target in another assay is cyno Nectin-4. Nature of the assay: SPR direct binding to biotinylated Nectin-4 extracellular domain, cyno.
Source text: as §1

The next assay deals with T3, mouse Nectin-4 (Mus musculus, UniProt Q8R007).
T3 sequence (Q8R007 31-347 limits assumed): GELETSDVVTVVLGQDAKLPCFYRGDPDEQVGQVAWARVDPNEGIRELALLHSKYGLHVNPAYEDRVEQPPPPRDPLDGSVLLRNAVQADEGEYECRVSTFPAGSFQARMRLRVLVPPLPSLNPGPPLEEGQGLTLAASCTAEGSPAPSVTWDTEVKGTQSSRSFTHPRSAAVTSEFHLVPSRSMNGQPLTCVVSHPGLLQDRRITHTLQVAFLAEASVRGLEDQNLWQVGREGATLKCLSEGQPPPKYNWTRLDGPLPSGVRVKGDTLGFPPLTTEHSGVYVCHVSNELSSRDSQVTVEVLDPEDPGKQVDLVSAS
Nature of the assay: SPR direct binding to biotinylated Nectin-4 extracellular domain, mouse.
Source text: as §1

The subject of assay [1] is Nectin-1, Nectin-2, Nectin-3, Nectin-like-1, Nectin-like-2, Nectin-like-3, Nectin-like-4, Nectin-like-5. The assay is described as follows: Nectin-4 paralogue screening by SPR. Type of assay: binding. Conditions: biotinylated targets on streptavidin surface. The method, then: Nectin-4 Paralogue screening: Binding of BCY11863 was assessed using SPR against Nectin-1 (2880-N1, R&D Systems), Nectin-2 (2229-N2, R&D Systems), Nectin-3 (3064-N3, R&D Systems), Nectin-like-1 (3678-S4-050, R&D Systems), Nectin-like-2 (3519-S4-050, R&D Systems), Nectin-like-3 (4290-S4-050, R&D Systems), Nectin-like-4 (4164-S4, R&D Systems) and Nectin-like-5 (2530-CD-050, R&D Systems) by labelling them with biotin and immobilizing them on a streptavidin surface.

[2] abbreviates: KD, biotinylated ECD captured on streptavidin chip.

The structures appear in SMILES notation. Values joined by “and” are separate entries in the source; they are usually repeats but may differ in a detail not shown here. Equal entries are not always repeated. Where two headings read alike, the source gives them in different places. Some results are limits rather than exact numbers.

The record followed here is patent publication US20230129258A1, “HETEROTANDEM BICYCLIC PEPTIDE COMPLEXES” (BicycleTx Limited, priority 2019, published 2023).

For `CCCC[C@@H]1NC(=O)[C@H](Cc2ccc(O)cc2)NC(=O)[C@@H]2CCCN2C(=O)[C@H](CC(=O)O)NC(=O)[C@H](C)NC(=O)[C@H](Cc2ccccc2)NC(=O)[C@@H]2CSCCC(=O)N3CN(CN(C3)C(=O)CCSC[C@@H](C(=O)N[C@@H](C)C(N)=O)NC1=O)C(=O)CCSC[C@H](NC(C)=O)C(=O)N[C@@H](CC(C)(C)C)C(=O)N1CCC[C@H]1C(=O)N[C@@H](CCC(=O)O)C(=O)N[C@H](CCCCNC(=O)CCc1cn(CCOCCOCCOCCN(CCOCCOCCOCCC(=O)N[C@H]3CSCCC(=O)N4CN5CN(C4)C(=O)CCSC[C@H](NC(=O)[C@@H](CC(=O)O)NC(=O)[C@H](Cc4cccc6ccccc46)NC(=O)[C@@H]4CCCN4C3=O)C(=O)N[C@@H](CCSC)C(=O)N[C@@H](CCCCNC(=N)N)C(=O)N[C@@H](CC(=O)O)C(=O)N[C@@H](Cc3c[nH]c4ccccc34)C(=O)N[C@@H](CO)C(=O)N[C@@H]([C@@H](C)O)C(=O)N3CCC[C@H]3C(=O)N3C[C@H](O)C[C@H]3C(=O)N[C@@H](Cc3c[nH]c4ccccc34)C(=O)N[C@H](C(N)=O)CSCCC5=O)CCOCCOCCOCCn3cc(CCC(=O)NCCCC[C@H]4NC(=O)[C@H](CCC(=O)O)NC(=O)[C@@H]5CCCN5C(=O)[C@H](CC(C)(C)C)NC(=O)[C@@H](NC(C)=O)CSCCC(=O)N5CN6CN(C5)C(=O)CCSC[C@H](NC(=O)[C@H](Cc5ccc(O)cc5)NC(=O)[C@@H]5CCCN5C4=O)C(=O)N[C@@H](Cc4ccccc4)C(=O)N[C@@H](C)C(=O)N[C@@H](CC(=O)O)C(=O)N4CCC[C@H]4C(=O)N[C@@H](Cc4ccc(O)cc4)C(=O)N[C@@H](CCCC)C(=O)N[C@H](C(=O)N[C@@H](C)C(N)=O)CSCCC6=O)nn3)nn1)C(=O)N1CCC[C@H]1C(=O)N[C@@H](Cc1ccc(O)cc1)C(=O)N2` [BCY11863], the dissociation constant (Kd) (as a rule, the concentration at which binding is half-saturated) on rat Nectin-4 (setting [2]) is 5 to 27 nM; at rat Nectin-4 (SPR KD Rat (25° C.), Direct Binding, biotinylated Nectin-4 extracellular domain, 25° C.), 15 ± 1 nM; on human Nectin-4 (setting [2]), 5 to 27 nM and 4.1 nM; on human Nectin-4 (SPR KD Human (25° C.), Direct Binding, biotinylated Nectin-4 extracellular domain, 25° C.), 5 ± 2.1 nM; on human Nectin-4 (SPR KD Human (37° C.), Direct Binding, biotinylated Nectin-4 extracellular domain, 37° C.), 5.2 ± 1.1 nM; on cyno Nectin-4 (Direct Binding, biotinylated Nectin-4 extracellular domain, 25° C., read-out: SPR KD NHP (25° C.)), 27 ± 15 nM. Also, the Kd was 5 to 27 nM on cyno Nectin-4 (biotinylated ECD captured on streptavidin chip, read-out: KD); 5 to 27 nM at mouse Nectin-4 (setting [2]); 4.6 ± 2.1 nM on mouse Nectin-4 (SPR KD Mouse (25° C.), Direct Binding, biotinylated Nectin-4 extracellular domain, 25° C.). The EC50 – broadly, the concentration needed to bring the measured effect to its halfway point – is 0.04 ± 0.04 nM with human PBMCs (4T1-D02 (mouse), 4 donors, read-out: IFNy (nM), EC50 of cytokine secretion); 0.16 ± 0.22 nM with human PBMCs (4T1-D02 (mouse), 4 donors, read-out: IL-2 (nM), EC50 of cytokine secretion); > 100 nM with human PBMCs (4T1-Parental (Nectin4-), read-out: IFNy (nM), EC50 of cytokine secretion); > 100 nM with human PBMCs (4T1-Parental (Nectin4-), read-out: IL-2 (nM), EC50 of cytokine secretion); 0.85 ± 0.66 nM with human PBMCs (H322 (human), 3 donors, read-out: IFNy (nM), EC50 of cytokine secretion); 0.84 ± 0.15 nM with human PBMCs (H322 (human), 3 donors, read-out: IL-2 (nM), EC50 of cytokine secretion). For the same compound, the EC50 in the assay with human PBMCs (HT1376 (human), 5 donors, read-out: IFNy (nM), EC50 of cytokine secretion) was 0.23 ± 0.15 nM; in the assay with human PBMCs (HT1376 (human), 5 donors, read-out: IL-2 (nM), EC50 of cytokine secretion), 0.39 ± 0.29 nM; in the assay with human PBMCs (MC38 #13 (mouse), 4 donors, read-out: IFNy (nM), EC50 of cytokine secretion), 0.17 ± 0.11 nM; in the assay on human PBMCs (MC38 #13 (mouse), 4 donors, read-out: IL-2 (nM), EC50 of cytokine secretion) it was 0.25 ± 0.08 nM; with human PBMCs (T-47D (human), 3 donors, read-out: IFNy (nM), EC50 of cytokine secretion), 0.08 ± 0.06 nM; in the assay with human PBMCs (T-47D (human), 3 donors, read-out: IL-2 (nM), EC50 of cytokine secretion), 0.2 ± 0.07 nM. Also, in the assay with human PBMCs (PBMC-4T1 (Nectin-4 engineered) co-culture, FIGS. 2A, 2B), the “IL-2 and IFN-γ cytokine secretion” value was “induces robust IL-2 and IFN-γ cytokine secretion”. In assay [1], the “binding to Nectin-4 paralogues: concentration up to which no binding was shown” value is on record as > 5000 nM.
